# Laboratory results published in US20050014751A1, “Use of n-acyl homoserine lactones for the treatment of insulitis” (priority 2001, published 2005).
# Values joined by “and” are separate entries in the source; they are usually repeats but may differ in a detail not shown here. Equal values may be shown once.
# Tests used:
# [1] = tested on: murine spleen cells; settings: Infection and Immunity, vol.66, no.1, January 1998; cited from earlier work
# [2] = tested on: insulitis in NOD mice; assay: Effect of OdDHL on insulitis in NOD mice (slide score); format: in vivo; settings: 3 times a week for four weeks
# Procedure: To investigate the effect of OdDHL on insulitis or type I diabetes mellitus, mice (NOD) with a genetic predisposition to develop IDDM (insulin dependent diabetes mellitus) were treated with OdDHL. The animals were dosed at […] intraperitoneally from 4 weeks of age, 3 times a week for four weeks. Insulitis was assessed at 14 weeks. In the table a score of 3 or more (DMSO and PBS) represents severe grade insulitis and 1.3 (OdDHL) represents little infiltration (a score of 1 would represent low grade peri-insulitis). The mice were scored according to the method of Beales et al (European Journal of Pharmacology 357(1998) 221-225).
# [3] = tested on: diabetes in NOD mice; assay: In vivo effects of CSA, anti-TNFα and OdDHL in the diabetes model; settings: OdDHL 30 mg/kg, 3 times per week for 4 weeks
# Procedure: Dose regimes of Cyclosporin A, anti-TNFα antibody and OdDHL were compared in the diabetes model. NOD mice were dosed at 25 mg/kg on alternate days for 160 days following the methodology of Mori et al (Diabetologia (1986) 29: 244-247), the content of which is incorporated herein by reference, for the investigation of CSA, and Anti TNF at 12 mg per individual, 0.5 mg three times a week for 8 weeks in accordance with the method of Suk et al (J. Immunology (2001) 166: 4481-4489), the content of which is incorporated herein by reference, was used for TNFα. OdDHL was dosed at 30 mg/kg, 3 times per week for 4 weeks as above.
# [4] = Comparative assay performed in vivo (OdDHL vs CSA and dexamethasone); settings: compared with CSA and dexamethasone
# Excerpt: From this it is believed that a similar result will be achieved for insulitis.
# [5] = tested on: TNF-alpha production; assay: TNF-alpha production from LPS-stimulated human PBMC; format: cell-based; settings: LPS 5×10^−5 μg/ml, 100,000 PBMC, 24 h, ELISA
# Procedure: Bacterial lipopolysaccharide (LPS) stimulates the production of a variety of cytokines, including TNF-alpha, from human PBMC; these cytokines in turn influence the development of T cells, supporting a T helper 1 conducive milieu. Human PBMC prepared from whole blood by buoyant density centrifugation were resuspended in CTCM. HSL compounds were again tested at similar dilutions as for murine splenocytes in 200 μl of CTCM, containing 5×10^−5 μg/ml LPS Escherichia coli strain 055:B5 (Sigma, Poole, UK) and 100,000 PBMC. Following incubation for 24 h at 37° C. in 5% CO2-air, the cell culture supernatants were collected and tested for TNF-alpha levels by ‘sandwich’ ELISA. Briefly, 96-well Nunc MaxiSorp (Life Technologies, Paisley, UK) plates were coated with 50 μl of a 2 μg/ml solution of mouse anti-human TNF-alpha monoclonal antibody (Pharmingen, UK) in 0.05 M carbonate/bicarbonate buffer, pH 9.6 overnight at 4° C. After washing the plates three times with PBS-Tween, which contained phosphate buffered saline (PBS) with 0.5% (vol/vol) Tween 20 (Sigma, Poole, UK), the plates were blocked with 1% (wt/vol) bovine serum albumin (BSA) (Sigma, Poole, UK) at room temperature for 2 h. […] Following four washes, the bound biotinylated antibody was detected with 50 μl of a 1:1,000 dilution of Streptavidin-peroxidase (Pharmingen, UK). […] The enzyme reaction was stopped with 50 μl of 2.5 M H2SO4 after an incubation of 10 minutes at room temperature and the development was read at 450 nm with a spectrophotometric 96-well plate reader (Dynex). […]
# Similar studies were carried out using, as the HSL compounds, N-(12-bromo-3-oxododecanoyl)-L-homoserine lactone (12BrOdDHL) and N-(12-hydroxy-3-oxododecanoyl)-L-homoserine lactone (12hydroxyOdDHL) and the plots for these are shown in FIG. 9. […] The IC50 value for dexamethasone was determined to be 500.
# In the cell culture assays the number of cells used (mouse splenocytes and human PBMC) was initially optimised to 100,000 cells per well. The optimal dose of ConA of 1 μg/ml used in the cell proliferation assays was determined from ConA titration curves. […]
# [6] = tested on: diabetes in NOD mice; assay: Alleviation of diabetes in NOD mice (incidence of diabetes, Uristix); format: in vivo; settings: above 6 mMol glucose/l = diabetes
# Procedure: The ability of the lead compound (OdDHL) to alleviate diabetes in NOD mice was determined by treating the mice 3 times per week for 4 weeks at 30 mg/kg as above. DMSO and OHHL were used as controls.
# Diabetes was diagnosed using Uristix and a level of above 6 mMol glucose/I was taken to indicate the presence of diabetes.
smiles,measurement,setting,value
"CCCCCCCCCC(=O)CC(=O)N[C@H]1CCOC1=O [OdDHL, N-(3-oxododecanoyl)-L-homoserine Lactone]",inhibition of concanavalin A mitogen stimulated proliferation of murine spleen cells,[1],inhibiting
same,"Slide Score (insulitis), individual animal","[2]; 100 mg/kg intraperitoneally from 4 weeks of age, insulitis assessed at 14 weeks, one value per animal, 100 mg/kg",1.936 and 1.478 and 1.154 and 1.000 and 1.418
same,"Slide Score (insulitis), Group Total","[2]; 100 mg/kg intraperitoneally, assessed at 14 weeks",6.986
same,"Slide Score (insulitis), Group Mean","[2]; 100 mg/kg intraperitoneally, assessed at 14 weeks, score of 3 or more = severe grade insulitis, 1 = low grade peri-insulitis, 100 mg/kg",1.397
same,in vivo action compared to reported data of Mori (CSA) and Suk (anti-TNF),[3],more effective in vivo action than in vitro
same,comparative performance in vivo,[4],performed better than CSA and dexamethasone
same,inhibition of TNF-α secretion (FIG. 8),[5],inhibited the secretion
same,incidence of diabetes,"[6]; Week of Experiment 20, 30 mg/kg 3 times per week for 4 weeks",0/11
same,incidence of diabetes,"[6]; Week of Experiment 30, 30 mg/kg 3 times per week for 4 weeks, week 30 of experiment",5/20
